In PubChem BioAssay (NCI):
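The compound was tested at five concentrations on cells cultured in 96-well plates, with a 48-hour exposure period. GI50 marks 50% less growth. TGI marks complete inhibition of growth.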

Key:
Experiment in all cases: inhibition of tumour cell growth, NCI panel, 48 h; in the data active = GI50 below about 0.43 µM; inactive = the rest
786-0 renal = system: 786-0 renal
A498 renal = system: A498 renal
A549 NSCLC = system: A549 NSCLC
ACHN renal = system: ACHN renal
BT-549 breast = system: BT-549 breast
CAKI-1 renal = system: CAKI-1 renal
CCRF-CEM leukemia = system: CCRF-CEM leukemia
COLO 205 colon = system: COLO 205 colon
DU-145 prostate = system: DU-145 prostate
HCC-2998 colon = system: HCC-2998 colon
HCT-116 colon = system: HCT-116 colon
HCT-15 colon = system: HCT-15 colon
HL-60(TB) leukemia = system: HL-60(TB) leukemia
HOP-62 NSCLC = system: HOP-62 NSCLC
HOP-92 NSCLC = system: HOP-92 NSCLC
HS 578T breast = system: HS 578T breast
HT29 colon = system: HT29 colon
IGROV1 ovarian = system: IGROV1 ovarian
K-562 leukemia = system: K-562 leukemia
KM12 colon = system: KM12 colon
LOX IMVI melanoma = system: LOX IMVI melanoma
M14 melanoma = system: M14 melanoma
MALME-3M melanoma = system: MALME-3M melanoma
MCF7 breast = system: MCF7 breast
MDA-MB-231 breast = system: MDA-MB-231 breast
MDA-MB-435 = system: MDA-MB-435
MOLT-4 leukemia = system: MOLT-4 leukemia
NCI-H226 lung = system: NCI-H226 lung
NCI-H23 lung = system: NCI-H23 lung
NCI-H460 lung = system: NCI-H460 lung
NCI-H522 lung = system: NCI-H522 lung
NCI/ADR-RES ovarian = system: NCI/ADR-RES ovarian
OVCAR-3 ovarian = system: OVCAR-3 ovarian
OVCAR-4 ovarian = system: OVCAR-4 ovarian
OVCAR-5 ovarian = system: OVCAR-5 ovarian
OVCAR-8 ovarian = system: OVCAR-8 ovarian
PC-3 prostate = system: PC-3 prostate
RPMI-8226 leukemia = system: RPMI-8226 leukemia
RXF 393 renal = system: RXF 393 renal
SF-268 CNS = system: SF-268 CNS
SF-295 CNS = system: SF-295 CNS
SF-539 CNS = system: SF-539 CNS
SK-MEL-2 melanoma = system: SK-MEL-2 melanoma
SK-MEL-28 melanoma = system: SK-MEL-28 melanoma
SK-MEL-5 melanoma = system: SK-MEL-5 melanoma
SK-OV-3 ovarian = system: SK-OV-3 ovarian
SN12C renal = system: SN12C renal
SNB-19 CNS = system: SNB-19 CNS
SNB-75 CNS = system: SNB-75 CNS
SR leukemia = system: SR leukemia
SW-620 colon = system: SW-620 colon
T-47D breast = system: T-47D breast
TK-10 renal = system: TK-10 renal
U251 CNS = system: U251 CNS
UACC-257 melanoma = system: UACC-257 melanoma
UACC-62 melanoma = system: UACC-62 melanoma
UO-31 renal = system: UO-31 renal

CCOC(=O)Nc1nc2ccc(Br)cc2s1
> 50 µM: TGI (786-0 renal) | TGI (A498 renal) | TGI (A549 NSCLC) | TGI (ACHN renal) | TGI (BT-549 breast) | TGI (CAKI-1 renal) | TGI (CCRF-CEM leukemia) | TGI (COLO 205 colon) | TGI (DU-145 prostate) | TGI (HCC-2998 colon) | TGI (HCT-116 colon) | TGI (HCT-15 colon) | TGI (HL-60(TB) leukemia) | TGI (HOP-62 NSCLC) | TGI (HOP-92 NSCLC) | TGI (HS 578T breast) | TGI (HT29 colon) | TGI (IGROV1 ovarian) | TGI (K-562 leukemia) | TGI (KM12 colon) | TGI (LOX IMVI melanoma) | TGI (M14 melanoma) | TGI (MALME-3M melanoma) | TGI (MCF7 breast) | TGI (MDA-MB-231 breast) | TGI (MDA-MB-435) | TGI (MOLT-4 leukemia) | TGI (NCI-H226 lung) | TGI (NCI-H23 lung) | TGI (NCI-H460 lung) | TGI (NCI-H522 lung) | TGI (NCI/ADR-RES ovarian) | TGI (OVCAR-3 ovarian) | TGI (OVCAR-4 ovarian) | TGI (OVCAR-5 ovarian) | TGI (OVCAR-8 ovarian) | TGI (PC-3 prostate) | TGI (RPMI-8226 leukemia) | TGI (RXF 393 renal) | TGI (SF-268 CNS) | TGI (SF-295 CNS) | TGI (SF-539 CNS) | TGI (SK-MEL-2 melanoma) | TGI (SK-MEL-28 melanoma) | TGI (SK-MEL-5 melanoma) | TGI (SK-OV-3 ovarian) | TGI (SN12C renal) | TGI (SNB-19 CNS) | TGI (SNB-75 CNS) | TGI (SR leukemia) | TGI (SW-620 colon) | TGI (T-47D breast) | TGI (TK-10 renal) | TGI (U251 CNS) | TGI (UACC-257 melanoma) | TGI (UACC-62 melanoma) | TGI (UO-31 renal)
inactive: GI50 (786-0 renal) > 50 µM | GI50 (A498 renal) > 50 µM | GI50 (A549 NSCLC) > 50 µM | GI50 (ACHN renal) > 50 µM | GI50 (BT-549 breast) > 50 µM | GI50 (CAKI-1 renal) > 50 µM | GI50 (CCRF-CEM leukemia) > 50 µM | GI50 (COLO 205 colon) > 50 µM | GI50 (DU-145 prostate) > 50 µM | GI50 (HCC-2998 colon) > 50 µM | GI50 (HCT-116 colon) > 50 µM | GI50 (HCT-15 colon) > 50 µM | GI50 (HL-60(TB) leukemia) > 50 µM | GI50 (HOP-62 NSCLC) > 50 µM | GI50 (HOP-92 NSCLC) > 50 µM | GI50 (HS 578T breast) > 50 µM | GI50 (HT29 colon) > 50 µM | GI50 (IGROV1 ovarian) > 50 µM | GI50 (K-562 leukemia) > 50 µM | GI50 (KM12 colon) > 50 µM | GI50 (LOX IMVI melanoma) > 50 µM | GI50 (M14 melanoma) > 50 µM | GI50 (MALME-3M melanoma) > 50 µM | GI50 (MCF7 breast) > 50 µM | GI50 (MDA-MB-231 breast) > 50 µM | GI50 (MDA-MB-435) > 50 µM | GI50 (MOLT-4 leukemia) > 50 µM | GI50 (NCI-H226 lung) > 50 µM | GI50 (NCI-H23 lung) > 50 µM | GI50 (NCI-H460 lung) > 50 µM | GI50 (NCI-H522 lung) > 50 µM | GI50 (NCI/ADR-RES ovarian) > 50 µM | GI50 (OVCAR-3 ovarian) > 50 µM | GI50 (OVCAR-4 ovarian) > 50 µM | GI50 (OVCAR-5 ovarian) > 50 µM | GI50 (OVCAR-8 ovarian) > 50 µM | GI50 (PC-3 prostate) > 50 µM | GI50 (RPMI-8226 leukemia) > 50 µM | GI50 (RXF 393 renal) > 50 µM | GI50 (SF-268 CNS) > 50 µM | GI50 (SF-295 CNS) > 50 µM | GI50 (SF-539 CNS) > 50 µM | GI50 (SK-MEL-2 melanoma) > 50 µM | GI50 (SK-MEL-28 melanoma) > 50 µM | GI50 (SK-MEL-5 melanoma) > 50 µM | GI50 (SK-OV-3 ovarian) > 50 µM | GI50 (SN12C renal) > 50 µM | GI50 (SNB-19 CNS) > 50 µM | GI50 (SNB-75 CNS) > 50 µM | GI50 (SR leukemia) > 50 µM | GI50 (SW-620 colon) > 50 µM | GI50 (T-47D breast) > 50 µM | GI50 (TK-10 renal) > 50 µM | GI50 (U251 CNS) > 50 µM | GI50 (UACC-257 melanoma) > 50 µM | GI50 (UACC-62 melanoma) > 50 µM | GI50 (UO-31 renal) > 50 µM
